The record followed here is ChEMBL document CHEMBL5500324, “The potential of marine-derived piperazine alkaloids: Sources, structures and bioactivities” (Eur J Med Chem, 2024).

Values after ≈ are worked out from the molar mass of the structure shown. Bounds are passed on as bounds.

Holding throughout (format): functional, cell-based
The subject of assay [1] is A549. Kind of assay: Antiproliferative activity against human A549 cells assessed as reduction in cell viability incubated for 72 hrs by SRB assay. To be noted: A549, 72 h. On the technique in general: Sulforhodamine B stains cellular protein and so reports cell mass.
For another assay, the system named is MDA-MB-231. Nature of the assay: Antiproliferative activity against human MDA-MB-231 cells assessed as reduction in cell viability incubated for 72 hrs by SRB assay. To be noted: MDA-MB-231, 72 h.
A further assay deals with HT-29. Nature of the assay: Antiproliferative activity against human HT-29 cells assessed as reduction in cell viability incubated for 72 hrs by SRB assay. To be noted: HT-29, 72 h.
For assay [2], the system named is HepG2. Nature of the assay: Antiproliferative activity against human HepG2 cells assessed as reduction in cell viability by CCK-8 assay. In general terms: Formazan colour is commonly taken as a measure of viable cells.
The subject of another assay is AGS. Nature of the assay: Antiproliferative activity against human AGS cells assessed as reduction in cell viability measured for 48 hrs by Cell-Titer Glo assay.
Assay [3] concerns MCF7. Kind of assay: Antiproliferative activity against human MCF7 cells assessed as reduction in cell viability incubated for 72 hrs by MTT assay. To be noted: MCF7, 72 h.
Assay [4] concerns HCT-116. Nature of the assay: Antiproliferative activity against human HCT-116 cells assessed as reduction in cell growth.
The subject of assay [5] is A549. Kind of assay: Antiproliferative activity against human A549 cells assessed as reduction in cell viability incubated for 72 hrs by CCK-8 assay. To be noted: A549, 72 h.
The next assay deals with HeLa. Nature of the assay: Cytotoxicity against human HeLa cells assessed as reduction in cell viability incubated for 24 hrs by CCK-8 assay.
Assay [6] deals with A549. Kind of assay: Cytotoxicity against human A549 cells assessed as reduction in cell viability incubated for 24 hrs by CCK-8 assay. To be noted: A549, 24 h.
The subject of the next assay is U-937. Kind of assay: Cytotoxicity against human U-937 cells assessed as reduction in cell growth incubated for 48 hrs by CCK-8 assay. To be noted: U-937, 48 h.
For another assay, the system named is PC-3. Nature of the assay: Cytotoxicity against human PC-3 cells assessed as reduction in cell growth incubated for 48 hrs by CCK-8 assay. To be noted: PC-3, 48 h.
Another assay has as its system HEK293. Kind of assay: Cytotoxicity against HEK293 cells assessed as cell growth inhibition. To be noted: Homo sapiens.
The subject of another assay is RKO. Nature of the assay: Cytotoxicity against human RKO cells assessed as inhibition of cell growth measured after 48 hrs by MTT assay.
The subject of assay [7] is HCT-116. Nature of the assay: Cytotoxicity against human HCT-116 cells assessed as reduction in cell viability incubated for 24 hrs by MTT assay. To be noted: HCT-116, 24 h.
The subject of another assay is HL-60. Kind of assay: Cytotoxicity against human HL-60 cells assessed as cell growth inhibition by MTT assay.
Assay [8] concerns A549. Kind of assay: Cytotoxicity against human A549 cells assessed as reduction in cell growth by MTT assay.
A further assay has as its system NCI-H1975. Kind of assay: Cytotoxicity against human NCI-H1975 cells assessed as cell growth inhibition by MTT assay.
Assay [9] concerns HCT-116. Nature of the assay: Cytotoxicity against human HCT-116 cells assessed as reduction in cell growth by MTT assay.
The test system of a further assay is K562. Kind of assay: Cytotoxicity against human K562 cells assessed as cell growth inhibition by MTT assay.
Assay [10] is described as follows: Cytotoxicity against human AML1 cells expressing FLT3-ITD mutant assessed as cell viability.
Assay [11] concerns A549. Nature of the assay: Cytotoxicity against human A549 cells assessed as reduction in cell viability incubated for 48 hrs by MTT assay. To be noted: A549, 48 h.
For assay [12], the system named is HCT-116. Nature of the assay: Cytotoxicity against human HCT-116 cells assessed as reduction in cell viability incubated for 48 hrs by MTT assay. To be noted: HCT-116, 48 h.
Assay [13] relates to MCF7. Nature of the assay: Cytotoxicity against human MCF7 cells assessed as inhibition of cell growth incubated for 72 hrs by SRB assay. To be noted: MCF7, 72 h.
The test system of another assay is SF-268. Nature of the assay: Cytotoxicity against human SF-268 cells assessed as inhibition of cell growth incubated for 72 hrs by SRB assay. To be noted: SF-268, 72 h.
In assay [14] the test system is HepG2. Kind of assay: Cytotoxicity against human HepG2 cells assessed as inhibition of cell growth incubated for 72 hrs by SRB assay. To be noted: HepG2, 72 h.
The test system of assay [15] is A549. Nature of the assay: Cytotoxicity against human A549 cells assessed as inhibition of cell growth incubated for 72 hrs by SRB assay. To be noted: A549, 72 h.

Consider `CN1C[C@@H](c2c[nH]c3cc(Br)ccc23)NC[C@@H]1c1c[nH]c2ccccc12`, for which the IC50 – broadly, the concentration that gives 50% inhibition – was determined as 2.7 µM in the assay with A549 [1], 4.7 µM in the assay with MDA-MB-231 and 3.3 µM with HT-29.

As to `CS[C@@]12CC3=CC=C[C@H](OC(C)=O)[C@H]3N1C(=O)[C@]1(SC)CC3=CC=C[C@H](O)[C@H]3N1C2=O`, the IC50 in the assay with HepG2 [2] is 21 mg/L (≈ 45.6 µM).

In the case of `CN1C[C@@H](c2c[nH]c3cc(Br)ccc23)N(C)C[C@@H]1c1c[nH]c2cc(Br)ccc12`, the IC50 in the assay on A549 [1] was 20.3 µM; in the assay on MDA-MB-231, 28 µM; in the assay with HT-29, 19.3 µM.

Turning to `CC(=O)O[C@H]1C=COC=C2C[C@@]34SS[C@]5(CC6=COC=C[C@H](OC(C)=O)[C@H]6N5C3=O)C(=O)N4[C@@H]21`, the IC50 with AGS was 32 µM; in the assay on MCF7 [3], 36 µM; in the assay on HCT-116 [4], 21 µM; with A549 [5] it was 23 µM.

Regarding `CC[C@H](C)[C@]1(OC)NC(=O)[C@@H](Cc2ccccc2)N2C(=O)C3=C(NC21)OC=CC=C3` (some centres undefined), the IC50 came out at 190 µM with HeLa and 100 µM with A549 [6].

As for `COc1ccc2c3c([nH]c2c1)[C@H](C=C(C)C)N1C(=O)[C@@H]2CCCN2C(=O)[C@]1(O)[C@H]3O`, the IC50 in the assay on U-937 amounted to 1.82 µM; in the assay on PC-3 it was 6.56 µM.

On to `CN1C(=O)[C@]2(S)CC3=CC=C[C@H](O)[C@H]3N2C(=O)[C@]1(S)CO`, for which the half-inhibitory concentration (IC50) in the assay with HEK293 was found to be 1.26 µM; in the assay with RKO, 0.41 µM; with HCT-116 [7], 0.43 µM.

With `CN1C(=O)[C@]23SSS[C@]1(CO)C(=O)N2[C@H]1Nc2ccccc2C1(C12c4ccccc4N[C@H]1N1C(=O)[C@@]4(CO)SSS[C@]1(C(=O)N4C)[C@H]2O)[C@@H]3O` (some centres undefined), the IC50 was determined as 1.5 µM with HL-60; 0.7 µM with A549 [8]; 0.8 µM in the assay on NCI-H1975; 0.3 µM with HCT-116 [9]; 1 µM in the assay with K562.

Turning to `CC1(C)C=Cc2c(ccc3c2N[C@@]24N5C(=O)[C@@H]6CCCN6C(=O)[C@]5(O)C[C@@]32O[C@H](CO)C4(C)C)O1`, in assay [10], the IC50 came to 7.2 µM.

As for `CC(C)/C=c1/[nH]c(=O)/c(=C/c2ccccc2)n(C)c1=O`, the IC50 with A549 [11] was 89.4 mg/L (≈ 331 µM); in the assay with HCT-116 [12] it was over 100 mg/L.

As for `CN1C(=O)[C@H]2CSC3=C(C(=O)c4ccccc4C3=O)N2C[C@@H]1CO`, the IC50 in the assay on MCF7 [13] was 25.7 µM; in the assay on SF-268, 17 µM; in the assay with HepG2 [14], 31.2 µM; with A549 [15], 34.4 µM.

Turning to `CS[C@@]12CC3=CC=CC[C@H]3N1C(=O)[C@]1(SC)CC3=CC=C[C@H](OC(C)=O)[C@H]3N1C2=O`, the half-maximal inhibitory concentration (IC50) in the assay on HepG2 [2] amounted to 48 mg/L (≈ 108 µM).

Consider `CN1C(=O)[C@@]23CSC4=C(C(=O)c5ccccc5C4=O)N2C[C@@H]1CO3`, for which the IC50 amounted to 20.7 µM with MCF7 [13], 11.9 µM in the assay on SF-268, 12 µM in the assay on HepG2 [14] and 13.5 µM in the assay on A549 [15].

Take `COc1ccc(C[C@H]2NC(=O)[C@@H](CC(C)C)NC2=O)cc1O`: the values for the half-inhibitory concentration (IC50) with A549 [11] and with HCT-116 [12] were 35.4 mg/L (≈ 116 µM) and 75.4 mg/L (≈ 246 µM), respectively.

For the compound `CC(=O)O[C@H]1C=COC=C2C[C@@]34SS[C@]5(Cc6ccccc6N5C3=O)C(=O)N4[C@@H]21`, the 50% inhibitory concentration (IC50) turned out to be 29 µM with AGS, 31 µM in the assay with MCF7 [3], 52 µM in the assay on HCT-116 [4] and 23 µM with A549 [5].

As for `CN1C[C@@H](c2c[nH]c3cc(Br)ccc23)NC[C@@H]1c1c[nH]c2cc(Br)ccc12`, the IC50 in the assay on A549 [1] was determined as 3.1 µM; in the assay on MDA-MB-231, 3.8 µM; in the assay on HT-29 it was 3.3 µM.
